Source: patent US9670227B2, “Thienopyrimidine derivatives, a process for their preparation and pharmaceutical compositions containing them” (LES LABORATOIRES SERVIER, priority 2013, dated 2017)

target: Mcl-1 protein (UniProtKB primary accession number: Q07820) (Homo sapiens, UniProt Q07820); assay: Inhibition of Mcl-1 by fluorescence polarisation, Method 1; type: binding; conditions: fluorescence polarisation test; Method 2 values are underlined in the patent (underlining not visible here); read-out: IC50 (M) Mcl-1 FP
Sequence (Q07820 whole entry): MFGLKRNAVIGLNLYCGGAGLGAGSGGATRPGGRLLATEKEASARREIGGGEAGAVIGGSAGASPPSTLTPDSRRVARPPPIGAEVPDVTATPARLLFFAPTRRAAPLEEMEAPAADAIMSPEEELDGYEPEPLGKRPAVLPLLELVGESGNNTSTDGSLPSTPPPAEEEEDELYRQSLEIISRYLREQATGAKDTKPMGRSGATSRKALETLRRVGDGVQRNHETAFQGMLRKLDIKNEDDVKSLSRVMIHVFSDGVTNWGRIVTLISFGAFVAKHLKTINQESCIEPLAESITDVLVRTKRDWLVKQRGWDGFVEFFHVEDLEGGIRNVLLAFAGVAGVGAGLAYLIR
Experimental: The relative binding potency of each compound was determined via Fluorescence Polarisation (FP).
An 11 point serial dilution of each compound was prepared in DMSO and 2 μl transferred into flat bottomed, low binding, 384-well plate (final DMSO concentration 5%). 38 μl of buffer (10 mM 4-(2-hydroxyethyl)-1-piperazineethanesulfonic acid [HEPES], 150 mM NaCl, 0.05% Tween 20, pH 7.4), containing the Fluorescein labelled ligand (final concentration 1 nM) and Mcl-1 protein (final concentration 5 nM) was then added.

Question: `Cc1c(-c2c(-c3ccc(F)o3)sc3ncnc(OC(Cc4ccccc4OCc4ccccn4)C(=O)O)c23)ccc(OCCN2CCN(C)CC2)c1Cl` (single isomer, unassigned) [Example 165] was tested. Which IC50 did it give?
Answer: 1.6e-06 M

Question: How did the IC50 turn out when `Cc1c(-c2c(-c3ccc(F)o3)sc3ncnc(OC(Cc4ccccc4OCc4ccccn4)C(=O)O)c23)ccc(OCCN2CCN(C)CC2)c1Cl` (single isomer, unassigned) [Example 166] was run?
Answer: 6e-09 M

Question: Which IC50 does the source give for `COc1ccccc1CC(Oc1ncnc2sc(-c3ccco3)c(-c3ccc(OC4CCCCN(C)C4)c(Cl)c3C)c12)C(=O)O` (single isomer, unassigned) [Example 300, (2R)-2-{[(5Sa)-5-{3-chloro-2-methyl-4-[(3R or S)-(1-methylazepan-3-yl)oxy]phenyl}-6-(furan-2-yl)thieno[2,3-d]pyrimidin-4-yl]oxy}-3-(2-methoxyphenyl)propanoic acid] here?
Answer: 3.7e-08 M

Question: Which IC50 does the source give for `COc1ccccc1CC(Oc1ncnc2sc(-c3ccco3)c(-c3ccc(OCCC4CN(C)CCO4)c(Cl)c3C)c12)C(=O)O` (single isomer, unassigned) [Example 318] here?
Answer: 3e-08 M

Question: For `COc1ccccc1C[C@@H](Oc1ncnc2sc(-c3ccco3)c(-c3ccc(OCCN4CCN(C)CC4)c(F)c3C)c12)C(=O)O` (single isomer, unassigned) [Example 333], which IC50 is on record?
Answer: 7.9e-07 M

Question: For `Cc1c(-c2c(-c3ccco3)sc3ncnc(O[C@@H](C(=O)O)[C@@H](O)c4ccccc4)c23)ccc(OCCN2CCN(C)CC2)c1Cl` (single isomer, unassigned) [Example 342], which IC50 is on record?
Answer: 3.5e-07 M

Question: How did the IC50 turn out when `Cc1c(-c2c(-c3ccco3)sc3ncnc(O[C@@H](C(=O)O)[C@@H](O)c4ccccc4)c23)ccc(OCCN2CCN(C)CC2)c1Cl` (single isomer, unassigned) [Example 343] was run?
Answer: 2.5e-07 M

Question: For `COc1ccccc1CC(Oc1ncnc2sc(-c3ccc(F)cc3)c(-c3ccc(OCCN4CCN(C)CC4)c(Cl)c3C)c12)C(=O)O` [Example 1, (2R)-2-{[(5Sa)-5-{3-chloro-2-methyl-4-[2-(4-methylpiperazin-1-yl)ethoxy]phenyl}-6-(4-fluorophenyl)thieno[2,3-d]pyrimidin-4-yl]oxy}-3-(2-methoxyphenyl)propanoic acid], which IC50 is on record?
Answer: 8e-08 M

Question: With `Cc1c(-c2c(-c3ccc(F)cc3)sc3ncnc(OC(Cc4ccccc4OCC4CCCO4)C(=O)O)c23)ccc(OCCN2CCN(C)CC2)c1Cl` [Example 2, (2R)-2-{[(5Sa)-5-{3-chloro-2-methyl-4-[2-(4-methylpiperazin-1-yl)ethoxy]phenyl}-6-(4-fluorophenyl)thieno[2,3-d]pyrimidin-4-yl]oxy}-3-{2-[(2R)-tetrahydrofuran-2-ylmethoxy]phenyl}propanoic acid] as the molecule, how does the IC50 read?
Answer: 1.2e-08 M

Question: Which IC50 does the source give for `Cc1c(-c2c(-c3ccc(F)cc3)sc3ncnc(OC(Cc4ccccc4OCC(F)(F)F)C(=O)O)c23)ccc(OCCN2CCN(C)CC2)c1Cl` [Example 3, (2R)-2-{[(5Sa)-5-{3-chloro-2-methyl-4-[2-(4-methylpiperazin-1-yl)ethoxy]phenyl}-6-(4-fluorophenyl)thieno[2,3-d]pyrimidin-4-yl]oxy}-3-[2-(2,2,2-trifluoroethoxy)phenyl]propanoic acid] here?
Answer: 8.9e-09 M

Question: With `Cc1c(-c2c(-c3ccc(F)cc3)sc3ncnc(OC(Cc4ccccc4OCc4ccccn4)C(=O)O)c23)ccc(OCCN2CCN(C)CC2)c1Cl` [Example 14, (2R)-2-{[(5Sa)-5-{3-chloro-2-methyl-4-[2-(4-methylpiperazin-1-yl)ethoxy]phenyl}-6-(4-fluorophenyl)thieno[2,3-d]pyrimidin-4-yl]oxy}-3-[2-(pyridin-2-ylmethoxy)phenyl]propanoic acid] as the molecule, how does the IC50 read?
Answer: 1.3e-08 M

Question: Which IC50 does the source give for `Cc1c(-c2c(-c3ccc(F)cc3)sc3ncnc(OC(Cc4ccccc4OCc4ccnc(-c5ccccn5)n4)C(=O)O)c23)ccc(OCCN2CCN(C)CC2)c1Cl` [Example 31, (2R)-2-{[(5Sa)-5-{3-chloro-2-methyl-4-[2-(4-methylpiperazin-1-yl)ethoxy]phenyl}-6-(4-fluorophenyl)thieno[2,3-d]pyrimidin-4-yl]oxy}-3-(2-{[2-(pyridin-2-yl)pyrimidin-4-yl]methoxy}phenyl)propanoic acid] here?
Answer: 5.6e-09 M

Question: `Cc1c(-c2c(-c3ccc(F)cc3)sc3ncnc(OC(Cc4ccccc4OCc4ccnc(-c5cccnc5)n4)C(=O)O)c23)ccc(OCCN2CCN(C)CC2)c1Cl` [Example 32, (2R)-2-{[(5Sa)-5-{3-chloro-2-methyl-4-[2-(4-methylpiperazin-1-yl)ethoxy]phenyl}-6-(4-fluorophenyl)thieno[2,3-d]pyrimidin-4-yl]oxy}-3-(2-{[2-(pyridin-3-yl)pyrimidin-4-yl]methoxy}phenyl)propanoic acid] was tested. Which IC50 did it give?
Answer: 4.8e-09 M

Question: `Cc1c(-c2c(-c3ccc(F)cc3)sc3ncnc(OC(Cc4ccccc4OCc4ccnc(-c5ccncc5)n4)C(=O)O)c23)ccc(OCCN2CCN(C)CC2)c1Cl` [Example 34, (2R)-2-{[(5Sa)-5-{3-chloro-2-methyl-4-[2-(4-methylpiperazin-1-yl)ethoxy]phenyl}-6-(4-fluorophenyl)thieno[2,3-d]pyrimidin-4-yl]oxy}-3-(2-{[2-(pyridin-4-yl)pyrimidin-4-yl]methoxy}phenyl)propanoic acid] was tested. Which IC50 did it give?
Answer: 3.3e-09 M

same assay, conditions: fluorescence polarisation; Method 1, or Method 2; read-out: IC50 (M) Mcl-1 FP

Question: For `CC#Cc1sc2ncnc(O[C@H](Cc3ccccc3OC)C(=O)O)c2c1-c1cc(F)c(OC)c(Cl)c1C` (single isomer, unassigned) [Example 470], which IC50 is on record?
Answer: 4.8e-07 M

Question: With `CC#Cc1sc2ncnc(O[C@H](Cc3ccccc3OC)C(=O)O)c2c1-c1cc(F)c(OC)c(Cl)c1C` (single isomer, unassigned) [Example 471] as the molecule, how does the IC50 read?
Answer: 6.3e-09 M

Question: `CC#Cc1sc2ncnc(O[C@H](Cc3ccccc3OC)C(=O)O)c2c1-c1ccc(CCCN(C)C)c(Cl)c1C` (single isomer, unassigned) [Example 478] was tested. Which IC50 did it give?
Answer: 5.3e-07 M

Question: How did the IC50 turn out when `CC#Cc1sc2ncnc(O[C@H](Cc3ccccc3OC)C(=O)O)c2c1-c1ccc(CCCN(C)C)c(Cl)c1C` (single isomer, unassigned) [Example 479] was run?
Answer: 1.1e-08 M

Question: With `COc1ccccc1CC(Oc1ncnc2sc(C3CCCO3)c(-c3ccc(OCCN4CCN(C)CC4)c(Cl)c3C)c12)C(=O)O` (single isomer, unassigned) [Example 590, (2R)-2-{[(5Sa)-5-{3-chloro-2-methyl-4-[2-(4-methylpiperazin-1-yl)ethoxy]phenyl}-6-((2S or R)-tetrahydrofuran-2-yl)thieno[2,3-d]pyrimidin-4-yl]oxy}-3-(2-methoxyphenyl)propanoic acid] as the molecule, how does the IC50 read?
Answer: 8.4e-08 M

Question: Which IC50 does the source give for `Cc1c(-c2c(-c3ccc(F)cc3)sc3ncnc(OC(Cc4ccccc4OCC4CCCO4)C(=O)O)c23)ccc(OC2CCCN(C)C2)c1Cl` (single isomer, unassigned) [Example 650, (2R)-2-{[(5Sa)-5-{3-chloro-2-methyl-4-[((3R or S)-1-methylpiperidin-3-yl)oxy]phenyl}-6-(4-fluorophenyl)thieno[2,3-d]pyrimidin-4-yl]oxy}-3-{2-[(2R)-tetrahydrofuran-2-ylmethoxy]phenyl}propanoic acid] here?
Answer: 5.1e-08 M

Question: How did the IC50 turn out when `COc1ccccc1C[C@@H](Oc1ncnc2sc(-c3ccc(F)cc3)c(-c3ccc(CCCN4CCN(C)CC4)c(Cl)c3C)c12)C(=O)O` (single isomer, unassigned) [Example 653] was run?
Answer: 1.6e-08 M

Question: With `Cc1c(-c2c(-c3ccc(F)cc3)sc3ncnc(OC(Cc4ccccc4OCC(F)(F)F)C(=O)O)c23)ccc(OCC2CCCN2C)c1Cl` (single isomer, unassigned) [Example 659, (2R)-2-{[(5Sa)-5-{3-chloro-2-methyl-4-[((2R or S)-1-methylpyrrolidin-2-yl)methoxy]phenyl}-6-(4-fluorophenyl)thieno[2,3-d]pyrimidin-4-yl]oxy}-3-[2-(2,2,2-trifluoroethoxy)phenyl]propanoic acid] as the molecule, how does the IC50 read?
Answer: 2.2e-08 M

Question: For `COc1ccccc1C[C@@H](Oc1ncnc2sc(-c3ccc(F)cc3)c(-c3cc(F)c(OCCN4CCN(C)CC4)c(Cl)c3C)c12)C(=O)O` (single isomer, unassigned) [Example 665], which IC50 is on record?
Answer: 3.9e-06 M

Question: How did the IC50 turn out when `CCc1sc2ncnc(O[C@@H](Cc3ccccc3OC)C(=O)O)c2c1-c1ccc(O)c(Cl)c1C` (single isomer, unassigned) [Example 679] was run?
Answer: 8.9e-07 M

Question: `CCc1sc2ncnc(O[C@@H](Cc3ccccc3OC)C(=O)O)c2c1-c1ccc(O)c(Cl)c1C` (single isomer, unassigned) [Example 680] was tested. Which IC50 did it give?
Answer: 2.8e-05 M

Question: With `CCc1sc2ncnc(OC(Cc3ccccc3OC)C(=O)O)c2c1-c1ccc(O)c(Cl)c1C` (single isomer, unassigned) [Example 681] as the molecule, how does the IC50 read?
Answer: 6.7e-09 M

Question: For `CCc1sc2ncnc(O[C@H](Cc3ccccc3OC)C(=O)O)c2c1-c1ccc(O)c(Cl)c1C` (single isomer, unassigned) [Example 682], which IC50 is on record?
Answer: 5.1e-07 M

Question: For `COc1ccccc1C[C@@H](Oc1ncnc2sc(-c3cccc(F)c3F)c(-c3ccc(C#CCN4CCN(C)CC4)c(Cl)c3C)c12)C(=O)O` (single isomer, unassigned) [Example 716], which IC50 is on record?
Answer: 1.5e-06 M

Question: With `C=C(C)c1sc2ncnc(O[C@H](Cc3ccccc3)C(=O)O)c2c1-c1cccc(Cl)c1C` (single isomer, unassigned) [Example 719] as the molecule, how does the IC50 read?
Answer: 2.7e-06 M

Question: For `C=C(C)c1sc2ncnc(O[C@H](Cc3ccccc3)C(=O)O)c2c1-c1cccc(Cl)c1C` (single isomer, unassigned) [Example 720], which IC50 is on record?
Answer: 4.4e-08 M

Question: Which IC50 does the source give for `COc1ccccc1-c1nccc(COc2ccccc2CC(Oc2ncnc3sc(-c4ccc(Oc5ccccc5)cc4)c(-c4ccc(OCCN5CCN(C)CC5)c(Cl)c4C)c23)C(=O)O)n1` (single isomer, unassigned) [Example 758] here?
Answer: 3.53e-07 M

Question: Which IC50 does the source give for `COc1ccccc1-c1nccc(COc2ccccc2CC(Oc2ncnc3sc(-c4ccc(OCCN5CCOCC5)cc4)c(-c4ccc(OCCN5CCN(C)CC5)c(Cl)c4C)c23)C(=O)O)n1` (single isomer, unassigned) [Example 763] here?
Answer: 9.05e-08 M

Question: With `COc1ccccc1-c1nccc(COc2ccccc2CC(Oc2ncnc3sc(-c4ccc(OCCc5ccccc5)cc4)c(-c4ccc(OCCN5CCN(C)CC5)c(Cl)c4C)c23)C(=O)O)n1` (single isomer, unassigned) [Example 765] as the molecule, how does the IC50 read?
Answer: 6.58e-07 M
